Reference: patent publication US10227321B2, “Soothing pro-pheromonal composition for mammals” (Melchior Material And Life Science France, priority 2014, dated 2019)
Blank lines part the entries; values can stand above or below the molecule they belong to.

Assays:
dogs = conditions: dog, in vivo; cited from earlier work
[1] = Estimated amounts released into the atmosphere from the thermal diffuser; type: physicochemical; conditions: for Daily amount released into the atmosphere: at 100° C.
Experimental: Based on the preceding measurements, we can estimate that the amounts released over the 35-day period by molecules going into each composition are the following (in grams):
By considering that at 100° C., all of product 122:1 decomposes as was shown in Example 3, we can estimate the daily amounts of the various products released into the atmosphere according to the various formulae.

[2] = In vitro study of 2M2B release: climatic chamber, gas chromatography; type: physicochemical; conditions: solution of Example 2b
Experimental: Conditions A: 1) Solketal/KOH/RI/DMSO/50° C. 2) APTS/MeOH/H2O. Conditions B: 1) Solketal/KOH/RBr/Toluene/DS/2) APTS/MeOH/H2O. Conditions C: 1) CH2Cl2/Et3N/MsCl 2) Solketal/KOH/ROMs/Toluene/DS/Δ3) APTS/MeOH/H2O. GC Method Used: Equipment: GC, Hewlett Packard 5890 Series II Detector FID Column: HP5 30 m, 0.53 mm, 0.88 μm Pressure: 11 psi Injection volume: 1 μL Sample preparation: 4 mg/mL in AcOEt Injector temperature: 270° C. Detector temperature: 280° C. Oven:
The solution prepared in Example 2b is used in a climatic chamber at 100° C. and 30° C. (conditions corresponding either to the temperature of a thermal diffuser or to room temperature). Samples are taken at regular intervals and the disappearance of compound 122:1 and the appearance of C22:1 AKG is measured by gas chromatography. The results are presented in the following table (the percentages are expressed only taking into consideration integration relative to compound 118 and of C18:0 AKG): […]

amount released over the 35-day period ([1]; from Formula 2c): 0.05 grams | amount released over the 35-day period ([1]; from Formula 2e): 0.0063 grams | amount released over the 35-day period ([1]; from Formula 2d): 0.0063 grams
Structure (SMILES): C/C=C(\C)C1OCC(COCCCCCCCCCCCC/C=C\CCCCCCCC)O1 (centres unmarked) [122:1]

Daily amount released into the atmosphere ([1]; 2% Formula (2e)): 0.14 mg | Daily amount released into the atmosphere ([1]; 5% Formula (2d)): 0.14 mg | Daily amount released into the atmosphere ([1]; 10% Formula (2c)): 1.2 mg
Structure (SMILES): C/C=C(\C)C1OCC(COCCCCCCCCCCCC/C=C\CCCCCCCC)O1 (centres unmarked) [C22:1 AKG]

The next lines start with the molecule.

Structure (SMILES): CC=C(C)C=O [2-Methyl-2-butenal, 2-methyl-2-butenal]
effect on dogs (dogs): has an effect on the heartbeat and the behavior of dogs | Daily amount released into the atmosphere ([1]; 2% Formula (2e)): 0.036 mg | Daily amount released into the atmosphere ([1]; 5% Formula (2d)): 36 mg | Daily amount released into the atmosphere ([1]; 10% Formula (2c)): 0.32 mg

Structure (SMILES): CCCCCCCCCCCCCCCCCCOCC(O)CO (centres unmarked) [C18:0 AKG]
% (GC integration relative to compound 118 and C18:0 AKG) ([2]; T = 30° C., 1 d): 0% | % (GC integration relative to compound 118 and C18:0 AKG) ([2]; T = 30° C., 2 d): 0% | % (GC integration relative to compound 118 and C18:0 AKG) ([2]; T = 30° C., 7 d): 0% | % (GC integration relative to compound 118 and C18:0 AKG) ([2]; T = 30° C., 14 d): 0.5% | % (GC integration relative to compound 118 and C18:0 AKG) ([2]; T = 30° C., 21 d): 1% | % (GC integration relative to compound 118 and C18:0 AKG) ([2]; T = 30° C., 28 d): 1% | % (GC integration relative to compound 118 and C18:0 AKG) ([2]; T = 30° C., time 0): 0% | % (GC integration relative to compound 118 and C18:0 AKG) ([2]; T = 100° C., 3 h): 48% | % (GC integration relative to compound 118 and C18:0 AKG) ([2]; T = 100° C., 6 h): 75% | % (GC integration relative to compound 118 and C18:0 AKG) ([2]; T = 100° C., 1 d): 98% | % (GC integration relative to compound 118 and C18:0 AKG) ([2]; T = 100° C., 2 d): 100% | % (GC integration relative to compound 118 and C18:0 AKG) ([2]; T = 100° C., 7 d): 100% | % (GC integration relative to compound 118 and C18:0 AKG) ([2]; T = 100° C., 14 d): 100% | % (GC integration relative to compound 118 and C18:0 AKG) ([2]; T = 100° C., 21 d): 100% | % (GC integration relative to compound 118 and C18:0 AKG) ([2]; T = 100° C., 28 d): 100% | % (GC integration relative to compound 118 and C18:0 AKG) ([2]; climatic chamber, T = 100° C., time 0): 0%

Structure (SMILES): CCCCC/C=C\C/C=C\CCCCCCCC(=O)O [Linoleic acid]
Daily amount released into the atmosphere ([1]; 2% Formula (2e)): 5.8 mg | Daily amount released into the atmosphere ([1]; 5% Formula (2d)): 5.1 mg | Daily amount released into the atmosphere ([1]; 10% Formula (2c)): 5.5 mg | amount released over the 35-day period ([1]; from Formula 2c): 0.195 grams | amount released over the 35-day period ([1]; from Formula 2e): 0.2 grams | amount released over the 35-day period ([1]; from Formula 2d): 0.188 grams
